Tests used:
[1] = tested on: α5-GABAA receptor; settings: cited from earlier work
[2] = target: T1, α5-GABAA (Homo sapiens, UniProt P31644); settings: cited from earlier work
T1 sequence (P31644 32-462): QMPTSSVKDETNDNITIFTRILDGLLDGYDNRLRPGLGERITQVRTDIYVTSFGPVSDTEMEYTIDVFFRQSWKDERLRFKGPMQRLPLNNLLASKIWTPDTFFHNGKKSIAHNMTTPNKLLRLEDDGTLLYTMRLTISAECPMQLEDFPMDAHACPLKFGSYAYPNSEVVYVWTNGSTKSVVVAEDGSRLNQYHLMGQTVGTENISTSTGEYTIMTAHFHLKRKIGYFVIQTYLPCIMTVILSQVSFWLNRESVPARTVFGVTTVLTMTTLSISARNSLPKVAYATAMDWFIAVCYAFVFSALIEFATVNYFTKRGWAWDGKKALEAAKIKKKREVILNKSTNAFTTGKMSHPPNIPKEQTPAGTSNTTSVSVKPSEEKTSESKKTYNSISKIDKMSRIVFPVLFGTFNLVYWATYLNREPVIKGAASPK

[3] = target: T2, α5β3γ2 receptor (Homo sapiens, UniProt P18507+P31644); experiment: Cell level screening: whole cell patch clamp, inverse agonist efficacy; type: cell-based; settings: for inhibition at 0.1 µM: HEK293, compound 100 nM, GABA 0.05-0.1 μM, HEK293 α5β3γ2, clamped at −60 mV, (Ipost-Ipre)*100/Ipre, read-out: inverse agonism efficacy(%); for inverse agonism efficacy of the compound/α5IA inverse agonism efficacy: ratio to α5IA, compound 100 nM
T2 construct: expressed in transfected cells; host or cells: HEK-293 (stably transfected)
Experimental: (§1) The inventors used electrophysiological methods to assay the inverse agonist efficacy of the substance to be tested. The detailed procedures are as follows: (1) Different subunits of GABAA receptors were expressed in human embryonic kidney cells 293 (HEK293). The cells were cultured in a culture medium and used as a cell model for screening potential analgesics. The α, β and γ subunits are necessary to form complete functional GABAA receptors. In this example, the inventor has established the following cell model: (a) α5 subunit (protein sequence is GenBank accession number: NP_001158509), β3 subunit (protein sequence is GenBank accession number: NP_068712) and γ2 subunit (protein sequence is GenBank accession number: NP_944494) were expressed in HEK-293 cell lines at the same time, which formed the complete functional GABAA receptors. (2) Cells were stably transfected HEK-293 cells expressing α5β3γ2 receptor, which were labeled by green fluorescent protein (GFP). Cells were grown in 10 cm dishes. The cells were passaged after reaching 80-90% confluence. During passaging, the culture medium was removed and discarded, 3 mL DMEM medium (Gibco™) was added to the dishes, the dishes were shaken slightly, and DMEM was removed and discarded. 3 mL Trypsin (Trypsin-EDTA 0.05%, Gibco™) was added and cells were digested at 37° C. for 3 minutes. Then 3 mL complete growth medium (DMEM+10% horse serum (Gibco™)) was added and the cells at the bottom of the culture dishes were dispersed. The cell suspension were transferred to a 15 mL centrifugal tube (Corning®) and then centrifuged at 200 g for 3 minutes. The supernatant was discarded, 4 mL complete growth medium was added, and the cells were resuspended by gently blowing. The cell suspension was diluted by 1:5 or 1:10 for subculturing. The cell suspension was diluted by 1:12 for electrophysiology experiment, which are added to the 24 well plate (Corning®) which has a glass slide pre-treated with poly-D-lysine. The cells were adhered to the slide before the experiment was conducted. The cells were maintained in culture for no more than 24 hours before use. (3) Compound concentration: for screening, all compounds were diluted to a final concentration of 100 nM. GABA was diluted at the concentration of 0.05-0.1 μM. The compounds were at the concentration of 1 nM, 10 nM, 50 nM, 100 nM and 1000 nM in dose-inverse agonism efficacy (%) experiment. The whole cell patch clamp technique was used in electrophysiology experiments. The extracellular solution (ECS) contained: 150 mM NaCl, 5 mM KCl, 2.5 mM CaCl2, 1 mM MgCl2, 10 mM HEPES and 10 mM glucose (pH 7.4); Patch electrodes were filled with an intracellular solution containing: 140 mM KCl, 5 mM EGTA, 10 mM HEPES (adjusted to pH 7.4 with KOH and to 320-330 mOsm with water). The currents were recorded by an EPC-10 amplifier and the PatchMaster software (HEKA). Patch electrodes with a resistance of 5-6 MΩ were pulled from borosilicate glass (Sutter). The diluted compounds were perfused by OCTAFLOWII system. GFP positive and independently growing cells were selected for recording. During recording, the membrane voltage was clamped at −60 mV. During experiment, the cells were firstly perfused with ECS for 20 seconds. When the baseline reached to a stable state, cells were then perfused with GABA solution. Then the current induced by GABA can be detected. After about 20-40 seconds, the current was stable. ECS was switched to compounds solution and the effects of the compounds were detected. At last, the perfusion solution was switched to ECS. The experiment was finished when the post-baseline returned to the pre-baseline before compounds perfusion. Only the data whose pre-baseline and post-baseline are at almost the same level were used for analysis. GABA was diluted at the concentration of 0.05-0.1 μM in ECS. Then, compounds were diluted at the desired concentration in GABA ECS. (4) Currents were analyzed with the PatchMaster (HEKA) software. […]

[4] = target: T2, α5β3γ2 receptor; experiment: Supplementary data for cell level screening: new electrophysiology method (I. Lecker et al); type: cell-based; settings: for Inverse agonism efficacy(%): new method, CsCl intracellular solution, GABA 0.1˜0.3 CM, other procedures as previous method; for inverse agonism efficacy of the compound/α5IA inverse agonism efficacy: ratio to the α5IA reference run above in the table (r4 or r29)
Experimental: as §1, with “GABA was diluted at the concentration of 0.05-0.1 μM.” left out, “[…],” for “Patch electrodes were filled with an intracellular solution containing: 140 mM KCl,”, “([…]” for “(adjusted to pH 7.4 with KOH and to 320-330 mOsm with”, “GABA was diluted at the concentration of 0.05-0.1 μM in ECS.” left out, “software. The GABA currents before (Ipre) and after (Ipost) compounds perfusion were recorded respectively. The efficacies of compounds were calculated by the following equation: inverse agonism efficacy=(Ipost-Ipre)*100/Ipre. N indicates experiment numbers.” for “software.”

[5] = Compound tissue distribution (brain/plasma); type: in vivo; settings: brain and plasma, po; rat, 1 mg/kg p.o. in 5% DMSO+70% PEG400+25% H2O, one hour; read-out: Brain/Plasma ratio
Experimental: The distribution ratio of blood brain tissue was calculated by comparing the concentration of compound in rat plasma and brain tissue. The experimental animals were divided into two groups, the plasma group and the brain group, each with three. To measure brain to plasma ratio, rats were administed compounds in 50% PEG400 p.o. at a dose of 10 mg compound to be tested/kg. One hour later, plasma and brain samples were taken. Concentrations of compounds in brain and plasma were detected using LC-MS/MS-AJ (Triple Quad 5500) assay and analyzed using Phoenix WinNonlin.
We also measured the brain to plasma ratio of compound #24. The experimental animals were divided into two groups, the plasma group and the brain group, each with three. To measure the brain to plasma ratio, Rats were administered compounds (1 mg/kg in 5% DMSO+70% PEG400+25% H2O p.o.). One hour later, plasma and brain samples were taken. Concentrations of compounds in brain and plasma were detected using a LC-MS/MS-AJ (Triple Quad 5500) assay and analyzed using Phoenix WinNonlin.

T2 sequence (P28472 26-473 isoform P28472-2 partner limits assumed, one chain of several): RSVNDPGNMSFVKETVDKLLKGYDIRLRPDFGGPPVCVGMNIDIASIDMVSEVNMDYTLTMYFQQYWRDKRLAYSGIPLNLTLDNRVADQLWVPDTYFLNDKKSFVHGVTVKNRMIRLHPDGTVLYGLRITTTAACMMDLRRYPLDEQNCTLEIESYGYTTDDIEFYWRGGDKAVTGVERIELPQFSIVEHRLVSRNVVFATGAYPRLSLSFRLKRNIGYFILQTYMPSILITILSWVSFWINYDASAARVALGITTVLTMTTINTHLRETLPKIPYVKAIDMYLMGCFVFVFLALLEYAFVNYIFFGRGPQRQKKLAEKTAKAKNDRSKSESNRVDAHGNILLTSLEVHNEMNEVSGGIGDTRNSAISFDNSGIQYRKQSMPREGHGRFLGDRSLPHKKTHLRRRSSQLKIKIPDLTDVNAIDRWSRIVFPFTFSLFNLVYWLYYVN
T2 sequence (P18507 40-475, one chain of several): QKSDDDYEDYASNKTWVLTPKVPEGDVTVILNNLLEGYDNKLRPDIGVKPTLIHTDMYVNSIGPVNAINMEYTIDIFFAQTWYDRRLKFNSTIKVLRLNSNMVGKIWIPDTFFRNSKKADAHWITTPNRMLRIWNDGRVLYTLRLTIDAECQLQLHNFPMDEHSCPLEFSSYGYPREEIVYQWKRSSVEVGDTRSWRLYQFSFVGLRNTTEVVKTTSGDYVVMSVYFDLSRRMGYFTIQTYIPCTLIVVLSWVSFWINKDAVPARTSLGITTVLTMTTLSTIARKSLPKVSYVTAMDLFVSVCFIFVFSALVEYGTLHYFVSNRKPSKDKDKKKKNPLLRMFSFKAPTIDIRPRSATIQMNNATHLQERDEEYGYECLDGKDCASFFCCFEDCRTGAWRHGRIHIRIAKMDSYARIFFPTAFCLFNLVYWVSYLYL

| inhibition at 0.1 µM [3] | inverse agonism efficacy of the compound/α5IA inverse agonism efficacy [3] | Inverse agonism efficacy(%) [4] | inverse agonism efficacy of the compound/α5IA inverse agonism efficacy [4] | Structure (SMILES) | also measured |
| --- | --- | --- | --- | --- | --- |
|  |  |  |  | Cn1ncnc1COc1nn2c(-c3cc(CO)on3)nncc2c1C(C)(C)C [MRK016-M3] | blocking of the binding of (^3H) R0-15-1788 in brain [1]: almost no blocking effect |
|  |  |  |  | Cc1cc(-c2nncc3c(C(C)(C)C)c(OCc4ncnn4C)nn23)no1 [MRK016, 3-tert-butyl-7-(5-methylisoxazol-3-yl)-2-(1-methyl-1H-1,2,4-triazol-5-ylmethoxy) pyrazolo[1,5-d][1,2,4]triazine] | blocking of the binding of (^3H) R0-15-1788 in brain [1]: could efficiently block the binding |
|  |  |  |  | CCOC(=O)c1ncn2c1[C@@H]1CCCN1C(=O)c1cc(OC)ccc1-2 [L-655,708] | inhibition efficacy ([2]; GABA 1 μM, highest dose of L-655,708): ~15%; inhibition of the current induced by low level GABA ([2]; GABA 5, 50 and 500 nM): in the concentration dependent manner; inhibition on the current induced by GABA ([2]; GABA concentration higher than 1 μM): no inhibition |
| 49% | 2.174 | −26% | 1.497 | O=C(NCCO)c1ccc(COc2nn3c(-c4cc(CO)on4)nnc3c3ccccc23)nc1 [Compound 39, N-(2-hydroxyethyl)-6-(((3-(5-(hydroxymethyl)isoxazol-3-yl)-[1,2,4]triazolo[3,4-a]phthalazin-6-yl)oxy)methyl)nicotinamide] |  |
| 58% | 2.572 | −18.67% | 1.075 | Cc1cc(-c2nnc3c4ccccc4c(OCc4ccc(C(=O)NN5CCOCC5)cn4)nn23)no1 [Compound 01, 6-((3-(5-methylisoxazol-3-yl)-[1,2,4]triazolo[3,4-a]phthalazin-6-yloxy)methyl)-N-morpholinonicotinamide] |  |
| 43.2% | 1.915 | −20% | 1.151 | O=C(NC1CCC1)c1ccc(COc2nn3c(-c4cc(CO)on4)nnc3c3ccccc23)nc1 [Compound 48, N-cyclobutyl-6-(((3-(5-(hydroxymethyl)isoxazol-3-yl)-[1,2,4]triazolo[3,4-a]phthalazin-6-yl)oxy)methyl)nicotinamide] |  |
|  |  | −34.5% | 1.855 | Cc1cc(-c2nnc3c4ccccc4c(OCc4ccc(C(=O)NCC5CC5)cn4)nn23)no1 [Compound 24, N-(cyclopropylmethyl)-6-(((3-(5-methylisoxazol-3-yl)-[1,2,4]triazolo[3,4-a]phthalazin-6-yl)oxy)methyl)nicotinamide] | Kp at 1 h [5]: 0.044 |
